{"source": "patent US20230142090A1", "about": "(priority 2020, published 2023)", "key": {"[1]": {"tested_on": "toxin co-regulated pili gene (tcpA)", "assay_type": "cell-based, Vibrio cholerae"}, "[2]": {"tested_on": "HEp-2 cell invasion by Salmonella", "assay_type": "cell-based"}, "cholera toxin": {"tested_on": "cholera toxin", "assay_type": "cell-based, V. cholerae Haiti and N16961"}, "sopB expression": {"tested_on": "sopB expression", "assay_type": "cell-based"}, "hilA expression": {"tested_on": "hilA expression", "assay_type": "cell-based"}, "[3]": {"tested_on": "Salmonella SPI1 expression (sicA-GFP)", "parameters": "species or system C57BL/6 mice", "settings": "mouse, in vivo"}, "HilD [4]": {"biological_target": "T1, HilD (Salmonella typhimurium, UniProt P0CL08)", "T1 construct": "6×His-NusA (followed by HRV 3C protease site) (N, cleaved yes); made in house; host or cells: E. coli BL21(DE3)", "T1 sequence (P0CL08 1-309)": "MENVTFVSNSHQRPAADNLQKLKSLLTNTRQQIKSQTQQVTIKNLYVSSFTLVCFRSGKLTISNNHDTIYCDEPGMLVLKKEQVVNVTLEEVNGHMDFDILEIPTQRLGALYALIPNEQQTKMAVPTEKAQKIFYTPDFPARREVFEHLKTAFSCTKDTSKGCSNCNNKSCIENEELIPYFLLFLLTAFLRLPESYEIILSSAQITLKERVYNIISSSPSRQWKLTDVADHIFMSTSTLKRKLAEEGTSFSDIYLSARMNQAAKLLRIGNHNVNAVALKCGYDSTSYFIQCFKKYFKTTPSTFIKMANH", "assay_type": "binding"}, "Salmonella": {"tested_on": "Salmonella", "assay_type": "cell-based"}, "RtsA": {"tested_on": "RtsA", "assay_type": "binding, Salmonella"}, "HilC": {"biological_target": "T2, HilC (Salmonella typhimurium, UniProt P0CL09)", "T2 sequence (P0CL09 1-295)": "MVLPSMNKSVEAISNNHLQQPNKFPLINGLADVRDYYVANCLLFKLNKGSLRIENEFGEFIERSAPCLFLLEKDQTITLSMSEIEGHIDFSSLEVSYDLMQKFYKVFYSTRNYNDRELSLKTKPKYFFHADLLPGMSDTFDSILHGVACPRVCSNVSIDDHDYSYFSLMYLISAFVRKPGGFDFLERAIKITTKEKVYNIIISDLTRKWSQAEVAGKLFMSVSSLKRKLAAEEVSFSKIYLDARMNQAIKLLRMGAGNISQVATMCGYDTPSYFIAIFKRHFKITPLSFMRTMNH", "assay_type": "binding"}, "HilD [5]": {"biological_target": "HilD (Salmonella typhimurium, UniProt P0CL08)", "assay_type": "cell-based"}, "[6]": {"tested_on": "cholera toxin genes ctxAB", "assay_type": "cell-based, Vibrio cholerae C6706 EI Tor strain"}, "[7]": {"settings": "hilC and rtsA deleted, hilD under tetracycline-inducible promoter, 20 μM (FIG. 4C)"}}, "note": "“Also recorded” adds a separate entry of the source. Read-outs that look alike come from different tables or passages of the source."}
{"smiles": "CCCCCCCCCCCCC/C=C\\C(=O)O", "note": "[c2-HDA, (Z)-hexadec-2-enoic acid]", "values": [{"measurement": "expression of tcpA", "setting": "[1]", "value": "represses expression"}, {"measurement": "decrease of invasion of HEp-2 cells compared to untreated cultures", "setting": "[2]", "value": 78, "unit": "%"}, {"measurement": "cholera toxin secretion / toxin amounts in the culture media", "setting": "cholera toxin", "value": "reduced; also recorded: reduces cholera toxin secretion"}, {"measurement": "inhibition of sopB expression in Δlon and ΔhilE mutants", "setting": "sopB expression", "value": "inhibited sopB expression in these mutants to the level observed in the wild type strain"}, {"measurement": "repression of sopB", "setting": "sopB expression", "value": 11, "unit": "fold"}, {"measurement": "repression of sopB expression", "setting": "sopB expression", "value": 68, "unit": "fold"}, {"measurement": "inhibition of hilA expression", "setting": "hilA expression", "value": 39, "unit": "%"}, {"measurement": "less potent in repressing hilA compared to the wild type", "setting": "hilA expression", "value": 39, "unit": "%"}, {"measurement": "reduction of hilA expression in the presence of only hilC", "setting": "hilA expression", "value": 20, "unit": "fold"}, {"measurement": "reduction of hilA expression in the presence of only rtsA", "setting": "hilA expression", "value": 13, "unit": "fold"}, {"measurement": "reduction of hilA expression, chain length comparison", "setting": "hilA expression", "value": 159, "unit": "fold"}, {"measurement": "repression of hilA expression in the absence of Lon", "setting": "hilA expression", "value": "continued to repress hilA expression"}, {"measurement": "repression of hilA in the presence of hilD only", "setting": "hilA expression", "value": 78, "unit": "fold"}, {"measurement": "reduction of the percentage of bacteria expressing SPI1 in the caecum", "setting": "[3]", "value": 2, "unit": "fold"}, {"measurement": "binding of HilD to the hilA promoter", "setting": "HilD [4]", "value": "prevented the binding; also recorded: partially inhibited binding; also recorded: completely inhibited; also recorded: did so partially"}, {"measurement": "effect on bacterial growth", "setting": "Salmonella", "value": "did not impair bacterial growth"}, {"measurement": "binding of RtsA to the hilA promoter", "setting": "RtsA", "value": "preventing binding; also recorded: partially inhibited binding; also recorded: prevented binding; also recorded: did so partially"}, {"measurement": "binding of HilC to the hilA promoter", "setting": "HilC", "value": "preventing binding; also recorded: partially inhibited binding; also recorded: prevented binding; also recorded: did so partially"}, {"measurement": "effect on HilD stability in the absence of Lon", "setting": "HilD [5]", "value": "no effect on its stability"}, {"measurement": "concentrations at which effects on virulence gene expression were apparent", "setting": "[6]", "value": "≥ 5", "unit": "µM"}, {"measurement": "repression of ctxAB", "setting": "[6]", "value": 20, "unit": "fold"}, {"measurement": "repression of virulence gene expression compared to Virstatin", "setting": "[6]", "value": "repressed much more efficiently"}]}
{"smiles": "CCCCCCC/C=C\\C(=O)O", "note": "[cis-2-decenoic acid, (Z)-dec-2-enoic acid]", "values": [{"measurement": "reduction of hilA expression, chain length comparison", "setting": "hilA expression; FIG. 1F", "value": 28, "unit": "%"}]}
{"smiles": "CCCCCCCCC/C=C\\C(=O)O", "note": "[cis-2-dodecenoic acid, (Z)-dodec-2-enoic acid]", "values": [{"measurement": "potency in repressing invasion genes relative to c2-HDA", "setting": "hilA expression", "value": "less potent in repressing invasion genes than c2-HDA"}, {"measurement": "reduction of hilA expression, chain length comparison", "setting": "hilA expression; FIG. 1F", "value": 3, "unit": "fold"}]}
{"smiles": "CCCCCCCCCCCCCCCCC/C=C\\C(=O)OC", "note": "[cis-2-eicosenoic acid methyl ester]", "values": [{"measurement": "repression of hilA expression by methyl ester", "setting": "hilA expression", "value": "not to significantly repress hilA expression"}]}
{"smiles": "CCCCCCCCCCCCCCCCC/C=C\\C(=O)O", "note": "[cis-2-eicosenoic acid, (Z)-icos-2-enoic acid]", "values": [{"measurement": "reduction of hilA expression, chain length comparison", "setting": "hilA expression; FIG. 1F", "value": 10, "unit": "fold"}, {"measurement": "repression of hilA in the presence of hilD only", "setting": "hilA expression; [7]", "value": 3, "unit": "fold"}]}
{"smiles": "CCCCCCCCCCCCC/C=C\\C(=O)OC", "note": "[cis-2-hexadecenoic acid methyl ester]", "values": [{"measurement": "repression of hilA expression by methyl ester", "setting": "hilA expression", "value": "not to significantly repress hilA expression"}]}
{"smiles": "CC(C)CCCCCCC/C=C\\C(=O)O", "note": "[cis-11-methyl-2-dodecenoic acid]", "values": [{"measurement": "potency in repressing invasion genes relative to c2-HDA", "setting": "hilA expression", "value": "less potent in repressing invasion genes than c2-HDA"}]}
{"smiles": "CCCCCCCC/C=C\\CCCCCCCC(=O)O", "note": "[oleic acid, cis-9-octadecenoic acid, reference compound]", "values": [{"measurement": "decrease of invasion of HEp-2 cells compared to untreated cultures", "setting": "[2]; overnight growth with 20 μM compound", "value": 70, "unit": "%"}, {"measurement": "repression of hilA expression", "setting": "hilA expression; 5 μM, hilA::luxCDABE, wild type (FIG. 1A)", "value": 1.3, "unit": "fold"}, {"measurement": "repression of hilA in the presence of hilD only", "setting": "hilA expression; [7]", "value": 1.2, "unit": "fold"}, {"measurement": "repression of ctxAB", "setting": "[6]", "value": 1.3, "unit": "fold"}]}
{"smiles": "CCCCCCCCCCCCCCCC(=O)O", "note": "[palmitic acid, reference compound]", "values": [{"measurement": "repression of ctxAB", "setting": "[6]", "value": "no repressive effects"}]}
{"smiles": "CCCCCCCCCCCCC/C=C/C(=O)O", "note": "[trans-2-hexadecenoic acid, reference compound]", "values": [{"measurement": "fold less potent in repressing hilA than the cis-isomer", "setting": "hilA expression; 20 μM fatty acids (FIG. 1A)", "value": 31, "unit": "fold"}]}
{"smiles": "O=C(O)CCCN1C(=O)c2cccc3cccc(c23)C1=O", "note": "[virstatin, reference compound]", "values": [{"measurement": "repression of ctxAB", "setting": "[6]", "value": 1.2, "unit": "fold"}]}
